This note sets out measurements from patent US8946234B2, “Halogen-substituted compounds” (Bayer CropScience AG, priority 2008, dated 2015).

One data set can be described thus: physchem. The data set is classed as physicochemical.
Details: not given
The method, then: ^a) Note regarding the determination of the log P values and mass detection: The log P values given were determined in accordance with EEC Directive 79/831 Annex V.A8 by HPLC (High Performance Liquid Chromatography) on a phase inversion column (C18). Agilent 1100 LC system; 50*4.6 Zorbax Eclipse Plus C18 1.8 micron; eluent A: acetonitrile (0.1% formic acid); eluent B: water (0.09% formic acid); linear gradient from 10% acetonitrile to 95% acetonitrile in 4.25 min, then 95% acetonitrile for a further 1.25 min; oven temperature 55° C.; flow: 2.0 ml/min. The mass detection is carried out via an Agilend MSD system.
Turning to `Cn1nc(C(F)(F)C(F)(F)C(F)(F)F)c(Br)c1C(=O)Nc1ccc(Cl)c(C(=O)NC2CC2)c1` [Ik-73], the logP was 3.58^a). For the molecule `CC(C)NC(=O)c1cccc(NC(=O)c2c(C(F)(F)F)c(C(F)(F)C(F)(F)F)nn2C)c1Cl` [Ik-77], the logP was 3.47^a). In the case of `Cn1nc(C(F)(F)C(F)(F)F)c(C(F)(F)F)c1C(=O)Nc1ccc(Cl)c(C(=O)NCc2ccc(F)cn2)c1` [Ik-80], the logP was 4.75^a). As to `CC#CC(C)(C)NC(=O)c1cc(NC(=O)c2c(C(F)(F)F)c(C(F)(F)C(F)(F)F)nn2C)ccc1Cl` [Ik-81], the logP was 4.03^a). Turning to `CSCCNC(=O)c1cc(NC(=O)c2c(C(F)(F)F)c(C(F)(F)C(F)(F)F)nn2C)ccc1Cl` [Ik-82], the logP is 3.57^a). `Cn1nc(C(F)(F)C(F)(F)F)c(C(F)(F)F)c1C(=O)Nc1ccc(Cl)c(C(=O)NCC=CCl)c1` [Ik-83]: the logP is recorded as 3.72^a). `Cn1nc(C(F)(F)C(F)(F)F)c(C(F)(F)F)c1C(=O)Nc1ccc(Cl)c(C(=O)NCc2ccccc2)c1` [Ik-84]: the logP was 3.90^a). As for `CNC(=O)c1cc(NC(=O)c2c(C(F)(F)F)c(C(F)(F)C(F)(F)F)nn2C)ccc1Cl` [Ik-85], the logP is 3.04^a). In the case of `Cn1nc(C(F)(F)C(F)(F)F)c(C(F)(F)F)c1C(=O)Nc1ccc(Cl)c(C(=O)NCC(F)F)c1` [Ik-86], the logP was 3.41^a). As for `Cn1nc(C(F)(F)C(F)(F)F)c(C(F)(F)F)c1C(=O)Nc1ccc(Cl)c(C(=O)NCC(F)(F)F)c1` [Ik-87], the logP is listed as 3.67^a). On the same count and under the same terms, next, `Cn1nc(C(F)(F)C(F)(F)F)c(C(F)(F)F)c1C(=O)Nc1ccc(Cl)c(C(=O)NCCF)c1` [Ik-88]: 3.21^a). Consider `CCSCC(C)NC(=O)c1cc(NC(=O)c2c(C(F)(F)F)c(C(F)(F)C(F)(F)F)nn2C)ccc1Cl` (stereo not drawn) [Ik-89], for which the logP is 4.09^a). In the case of `CC(C)NC(=O)c1cc(NC(=O)c2c(C(F)(F)F)c(C(F)(F)C(F)(F)F)nn2C)ccc1Cl` [Ik-90], the logP was 3.60^a). Same read-out and setting: next, `CCC(C)NC(=O)c1cc(NC(=O)c2c(C(F)(F)F)c(C(F)(F)C(F)(F)F)nn2C)ccc1Cl` (stereo not drawn) [Ik-91]: 3.87^a); `CC(C)CNC(=O)c1cc(NC(=O)c2c(C(F)(F)F)c(C(F)(F)C(F)(F)F)nn2C)ccc1Cl` [Ik-92]: 3.90^a); `C=CCNC(=O)c1cc(NC(=O)c2c(C(F)(F)F)c(C(F)(F)C(F)(F)F)nn2C)ccc1Cl` [Ik-93]: 3.44^a). Consider `Cn1nc(C(F)(F)C(F)(F)F)c(C(F)(F)F)c1C(=O)Nc1cc(F)c(F)c(C(=O)NCc2ccccc2)c1` [Ik-97], for which the logP is given as 4.19^a). With `Cn1nc(C(F)(F)C(F)(F)F)c(I)c1C(=O)Nc1ccc(Cl)c(C(=O)NCC(F)(F)F)c1` [Ik-99], the logP was 3.52^a). For `CC(C)(F)n1nc(C(F)C(F)(F)F)c(C(F)(F)F)c1C(=O)Nc1ccc(Cl)c(C(=O)NC2CC2)c1` (stereo not drawn) [Ik-100], the logP was 3.39^a). On to `CCOC(=O)c1cc(NC(=O)c2c(C(F)(F)F)c(C(F)(F)C(F)(F)F)nn2C)ccc1Cl` [Ik-103], for which the logP is 4.42^a). As for `Cn1nc(C(F)(F)C(F)(F)F)c(C(F)(F)F)c1C(=O)Nc1ccc(OC(F)F)c(C(=O)O)c1` [Ik-104], the logP is reported as 3.23^a). On the same count and under the same terms, next, `Cn1nc(C(F)(F)C(F)(F)F)c(C(F)(F)F)c1C(=O)Nc1cc2c(cc1F)COC2=O` [Ik-105]: 3.27^a); `Cn1nc(C(F)(F)C(F)(F)F)c(C(F)(F)F)c1C(=O)Nc1ccc2c(c1)C(=O)OC2` [Ik-106]: 3.20^a); `COC(=O)COC(=O)c1cc(NC(=O)c2c(C(F)(F)F)c(C(F)(F)C(F)(F)F)nn2C)ccc1Cl` [Ik-107]: 4.03^a). For the molecule `CN(C)C(=O)COC(=O)c1cc(NC(=O)c2c(C(F)(F)F)c(C(F)(F)C(F)(F)F)nn2C)ccc1Cl` [Ik-108], the logP is listed as 3.57^a).

Turning to `CCN(CC)C(=O)COC(=O)c1cc(NC(=O)c2c(C(F)(F)F)c(C(F)(F)C(F)(F)F)nn2C)ccc1Cl` [Ik-109], the logP was 4.11^a). For the molecule `Cn1nc(C(F)(F)C(F)(F)F)c(C(F)(F)F)c1C(=O)Nc1ccc(Cl)c(C(=O)OCC(=O)NC(N)=O)c1` [Ik-110], the logP was 3.10^a). Consider `Cn1nc(C(F)(F)C(F)(F)F)c(C(F)(F)F)c1C(=O)Nc1ccc(Cl)c(C(=O)OCC(=O)NCO)c1` [Ik-115], for which the logP is 2.93^a). On the same count and under the same terms, next, `Cn1nc(C(F)(F)OC(F)(F)C(F)(F)OC(F)(F)F)c(Br)c1C(=O)Nc1ccc(Cl)c(C(=O)NC2CC2)c1` [Ik-117]: 4.31^a); `CN(C(=O)c1c(C(F)(F)F)c(C(F)(F)C(F)(F)F)nn1C)c1ccc(Cl)c(C(=O)NC2CC2)c1` [Ik-132]: 3.30^a); `CN(C(=O)c1c(C(F)(F)F)c(C(F)(F)C(F)(F)F)nn1C)c1ccc(Cl)c(C(=O)NCC(F)(F)F)c1` [Ik-133]: 3.66^a). For the molecule `CN(C(=O)c1c(C(F)(F)F)c(C(F)(F)C(F)(F)F)nn1C)c1ccc(Cl)c(C(=O)NCc2ccccc2)c1` [Ik-134], the logP is on record as 3.94^a).

For the molecule `COCN(C(=O)c1c(C(F)(F)F)c(C(F)(F)C(F)(F)F)nn1C)c1ccc(Cl)c(C(=O)NC2CC2)c1` [Ik-135], the logP was 3.51^a). With `CCN(C(=O)c1c(C(F)(F)F)c(C(F)(F)C(F)(F)F)nn1C)c1ccc(Cl)c(C(=O)NC2CC2)c1` [Ik-136], the logP was 3.55^a). `CC(C)N(C(=O)c1c(C(F)(F)F)c(C(F)(F)C(F)(F)F)nn1C)c1ccc(Cl)c(C(=O)NC2CC2)c1` [Ik-137]: the logP is on record as 3.74^a).

Consider `CCN(C(=O)c1c(C(F)(F)F)c(C(F)(F)C(F)(F)F)nn1C)c1ccc(Cl)c(C(=O)NCC(F)(F)F)c1` [Ik-138], for which the logP is 3.81^a). The same measure, in the same setting: next, `CC(C)N(C(=O)c1c(C(F)(F)F)c(C(F)(F)C(F)(F)F)nn1C)c1ccc(Cl)c(C(=O)NCC(F)(F)F)c1` [Ik-139]: 4.02^a). In the case of `Cn1nc(C(F)(F)C(F)(F)F)c(C(F)(F)F)c1C(=O)Nc1cc(F)c(F)c(C(=O)NC2CC2)c1` [Ik-140], the logP is 3.60^a).

As to `Cn1nc(C(F)(F)C(F)(F)F)c(C(F)(F)F)c1C(=O)Nc1cc(F)c(F)c(C(=O)NCC(F)(F)F)c1` [Ik-141], the logP was 3.89^a). The same measure, in the same setting: next, `Cn1nc(C(F)(F)C(F)(F)F)c(C(F)(F)F)c1C(=O)Nc1cc(C(=O)NCc2ccccc2)c(Cl)cc1F` [Ik-142]: 4.00^a); `Cn1nc(C(F)(F)C(F)(F)F)c(C(F)(F)F)c1C(=O)Nc1cc(C(=O)NC2CC2)c(Cl)cc1F` [Ik-143]: 3.39^a).

The data set is the same for the next values; noted with them: HPLC phase inversion (reversed-phase) C18 column, HPLC method a), eluent acetonitrile/water with formic acid; read-out: logP.
On to `O=C(NCC(F)(F)F)c1cc(NC(=O)c2[nH]nc(C(F)(F)C(F)(F)F)c2C(F)(F)F)ccc1Cl` [Ik-124, N-{4-Chloro-3-[(2,2,2-trifluoroethyl)carbamoyl]phenyl}-3-(pentafluoroethyl)-4-(trifluoromethyl)-1H-pyrazole-5-carboxamide], for which the chromatographic logP was 3.26. `Cn1nc(C(F)(F)F)c(C(F)(F)F)c1C(=O)Nc1ccc(Cl)c(C(=O)NCC(F)(F)F)c1` [Ik-125, N-{4-Chloro-3-[(2,2,2-trifluoroethyl)carbamoyl]-phenyl}-1-methyl-3,4-bis(trifluoromethyl)-1H-pyrazole-5-carboxamide]: the chromatographic logP was 3.25. For the molecule `Cn1nc(OC(F)F)c(C(F)(F)F)c1C(=O)Nc1ccc(Cl)c(C(=O)NCC(F)(F)F)c1` [Ik-126, N-{4-Chloro-3-[(2,2,2-trifluoroethyl)carbamoyl]phenyl}-3-(difluoromethoxy)-1-methyl-4-(trifluoromethyl)-1H-pyrazole-5-carboxamide], the chromatographic logP is 3.01. As for `Cn1nc(C(F)(F)C(F)(F)F)c(C(F)(F)F)c1C(=O)Nc1ccc(Br)c(C(=O)N[C@@H]2C[C@@H]2F)n1` [Ik-127, N-{3-Bromo[2-(1R,2S)-2-fluorocycloprop-1-ylcarbamoyl]pyrid-6-yl}-1-methyl-3-(pentafluoroethyl)-4-(trifluoromethyl)-1H-pyrazole-5-carboxamide], the chromatographic logP is 3.29. With `Cn1nc(C(F)(F)C(F)(F)F)c(C(F)(F)F)c1C(=O)Nc1cc(C(=O)N[C@@H]2C[C@@H]2F)c(Br)cn1` [Ik-128, 5-Bromo-N-[(1R,2S)-2-fluorocyclopropyl]-2-({[1-methyl-3-(pentafluoroethyl)-4-(trifluoromethyl)-1H-pyrazol-5-yl]carbonyl}amino)isonicotinamide], the chromatographic logP amounted to 3.19.

For the molecule `Cn1nc(C(F)(F)C(F)(F)F)c(C(F)(F)F)c1C(=O)Nc1cc(C(=O)O)c(Cl)cn1` [Ik-129, 5-Chloro-2-({[1-methyl-3-(pentafluoroethyl)-4-(trifluoromethyl)-1H-pyrazol-5-yl]carbonyl}amino)isonicotinic acid], the chromatographic logP came out at 2.82.

Turning to `Cn1nc(C(F)(F)C(F)(F)F)c(C(F)(F)F)c1C(=O)Nc1ccnc(C(=O)NC2CC2(F)F)c1` (stereo not drawn) [Ik-130, N-[2-(2,2-Difluorocycloprop-1-ylcarbamoyl)pyrid-4-yl]-1-methyl-3-(pentafluoroethyl)-4-(trifluoromethyl)-1H-pyrazole-5-carboxamide], the chromatographic logP is 3.59. Regarding `Cn1nc(C(F)(F)C(F)(F)F)c(C(F)(F)F)c1C(=O)Nc1cnc(Cl)c(C(=O)O)c1` [Ik-131, 2-Chloro-5-({[1-methyl-3-(pentafluoroethyl)-4-(trifluoromethyl)-1H-pyrazol-5-yl]carbonyl}amino)nicotinic acid], the chromatographic logP amounted to 2.27.

The data set is the same for the next values; noted with them: HPLC phase inversion (reversed-phase) C18 column, HPLC on C18 phase inversion column, method a); read-out: logP.
For the molecule `O=C(NCC(F)(F)F)c1cc(NC(=O)c2[nH]nc(C(F)(F)C(F)(F)F)c2C(F)(F)F)ccc1Cl` [Ik-124, N-{4-Chloro-3-[(2,2,2-trifluoroethyl)carbamoyl]phenyl}-3-(pentafluoroethyl)-4-(trifluoromethyl)-1H-pyrazole-5-carboxamide], the chromatographic logP turned out to be 3.26. Consider `Cn1nc(C(F)(F)F)c(C(F)(F)F)c1C(=O)Nc1ccc(Cl)c(C(=O)NCC(F)(F)F)c1` [Ik-125, N-{4-Chloro-3-[(2,2,2-trifluoroethyl)carbamoyl]-phenyl}-1-methyl-3,4-bis(trifluoromethyl)-1H-pyrazole-5-carboxamide], for which the chromatographic logP worked out at 3.25. Turning to `Cn1nc(OC(F)F)c(C(F)(F)F)c1C(=O)Nc1ccc(Cl)c(C(=O)NCC(F)(F)F)c1` [Ik-126, N-{4-Chloro-3-[(2,2,2-trifluoroethyl)carbamoyl]phenyl}-3-(difluoromethoxy)-1-methyl-4-(trifluoromethyl)-1H-pyrazole-5-carboxamide], the chromatographic logP came to 3.01. Take `Cn1nc(C(F)(F)C(F)(F)F)c(C(F)(F)F)c1C(=O)Nc1ccc(Br)c(C(=O)N[C@@H]2C[C@@H]2F)n1` [Ik-127, N-{3-Bromo[2-(1R,2S)-2-fluorocycloprop-1-ylcarbamoyl]pyrid-6-yl}-1-methyl-3-(pentafluoroethyl)-4-(trifluoromethyl)-1H-pyrazole-5-carboxamide]: the chromatographic logP amounted to 3.29. `Cn1nc(C(F)(F)C(F)(F)F)c(C(F)(F)F)c1C(=O)Nc1cc(C(=O)N[C@@H]2C[C@@H]2F)c(Br)cn1` [Ik-128, 5-Bromo-N-[(1R,2S)-2-fluorocyclopropyl]-2-({[1-methyl-3-(pentafluoroethyl)-4-(trifluoromethyl)-1H-pyrazol-5-yl]carbonyl}amino)isonicotinamide]: the chromatographic logP is 3.19.

Take `Cn1nc(C(F)(F)C(F)(F)F)c(C(F)(F)F)c1C(=O)Nc1cc(C(=O)O)c(Cl)cn1` [Ik-129, 5-Chloro-2-({[1-methyl-3-(pentafluoroethyl)-4-(trifluoromethyl)-1H-pyrazol-5-yl]carbonyl}amino)isonicotinic acid]: the chromatographic logP came out at 2.82. Consider `Cn1nc(C(F)(F)C(F)(F)F)c(C(F)(F)F)c1C(=O)Nc1ccnc(C(=O)NC2CC2(F)F)c1` (stereo not drawn) [Ik-130, N-[2-(2,2-Difluorocycloprop-1-ylcarbamoyl)pyrid-4-yl]-1-methyl-3-(pentafluoroethyl)-4-(trifluoromethyl)-1H-pyrazole-5-carboxamide], for which the chromatographic logP stood at 3.59.

With `Cn1nc(C(F)(F)C(F)(F)F)c(C(F)(F)F)c1C(=O)Nc1cnc(Cl)c(C(=O)O)c1` [Ik-131, 2-Chloro-5-({[1-methyl-3-(pentafluoroethyl)-4-(trifluoromethyl)-1H-pyrazol-5-yl]carbonyl}amino)nicotinic acid], the chromatographic logP amounted to 2.77.
